This note sets out measurements from PubChem BioAssay AID1259408 (Genetic Toxicology Data Bank (GENE-TOX), 2018).

Activity calls are given as the source filed them. No rule for the calls is given here.

This data set relates to GENE-TOX genotoxicity assays, various organisms and cells. Nature of the data set: GENE-TOX mutagenicity studies. To be noted: for call: Assay Type: In vivo carcinogenicity studies.
The mark [1] stands for this setting: Species/Cell Type: Nonhuman, Assay Type: Sister-chromatid exchange (SCE) in vitro, Assay Code: SC2T, Evaluation Type: Evaluation B (Post-1980).
Setting [2] is: Species/Cell Type: Salmonella typhimurium (one or more of the five standard strains: TA98, TA100, TA1535, TA1537, and TA1538), Assay Type: Histidine reverse gene mutation, Ames assay, Assay Code: SAL+*, Activation: With metabolic activation, Evaluation Type: Evaluation A (Pre-1980).
Setting [3] is: Species/Cell Type: Chinese hamster lung (V79) cells, Assay Type: Forward gene mutation at the HPRT or ouabain locus, Assay Code: V79-*, Activation: With metabolic activation, Evaluation Type: Evaluation A (Pre-1980).
The mark [4] stands for this setting: Species/Cell Type: Drosophila melanogaster, Assay Type: Sex-linked recessive lethal gene mutation, Assay Code: SRLT, Evaluation Type: Evaluation A (Pre-1980).
Where [5] appears, read: Species/Cell Type: Human diploid fibroblasts, Assay Type: Unscheduled DNA synthesis (UDS) in vitro, DNA effects, Assay Code: UDH-, Evaluation Type: Evaluation A (Pre-1980).
Setting [6] is: Species/Cell Type: Bacillus subtilis (H17 vs M45), Assay Type: Rec-assay, spot test, DNA effects (bacterial DNA repair), Assay Code: REWT, Evaluation Type: Evaluation A (Pre-1980).
[7] abbreviates: Species/Cell Type: Nonhuman, Assay Type: Sister-chromatid exchange (SCE) in vitro, Assay Code: SC2+D, Dose Response: With dose response, Evaluation Type: Evaluation B (Post-1980).
Where [8] appears, read: Species/Cell Type: Salmonella typhimurium (one or more of the five standard strains: TA98, TA100, TA1535, TA1537, and TA1538), Assay Type: Histidine reverse gene mutation, Ames assay, Assay Code: SALT, Evaluation Type: Evaluation A (Pre-1980).
The mark [9] stands for this setting: Species/Cell Type: Escherichia coli WP2, Assay Type: Tryptophan reverse gene mutation, Assay Code: WP2+, Evaluation Type: Evaluation A (Pre-1980).
Where [10] appears, read: Species/Cell Type: Salmonella typhimurium (one or more of the five standard strains: TA98, TA100, TA1535, TA1537, and TA1538), Assay Type: Histidine reverse gene mutation, Ames assay, Assay Code: SAL+, Evaluation Type: Evaluation A (Pre-1980).
Setting [11] is: Species/Cell Type: Bacillus subtilis (H17 vs M45), Assay Type: Rec-assay, spot test, DNA effects (bacterial DNA repair), Assay Code: REW-, Evaluation Type: Evaluation A (Pre-1980).
The mark [12] stands for this setting: Species/Cell Type: Salmonella typhimurium (one or more of the five standard strains: TA98, TA100, TA1535, TA1537, and TA1538), Assay Type: Histidine reverse gene mutation, Ames assay, Assay Code: SAL-, Evaluation Type: Evaluation A (Pre-1980).

Consider `CC(=O)c1c(=O)cc(C)oc1=O`, for which the mutagenic call (Species/Cell Type: Nonhuman, Assay Type: Sister-chromatid exchange (SCE) in vitro, Assay Code: SC2-, Evaluation Type: Evaluation A (Pre-1980)) was “inactive; negative” and the mutagenic call under setting [1] was “no conclusion”.

Take `CC(C)(C)I`: the mutagenic call (Species/Cell Type: Escherichia coli polA (W3119 vs P3478), Assay Type: Rec-assay, DNA effects (bacterial DNA repair), Assay Code: RE1+, Evaluation Type: Evaluation A (Pre-1980)) is “active; positive”.

As to `COc1cc(O)c2c(O)c3c(c4c2c1[C@]1(C4)C(C)=CCCC1(C)C)[C@H](O)[C@@]1(O)CC(=O)C(C(N)=O)=C(O)[C@@]1(O)C3=O`, the mutagenic call under setting [2] was “active; positive”.

In the case of `OC1c2ccccc2-c2cc3ccccc3cc2C1O` (stereo not drawn), the mutagenic call reads like this: under setting [3], “inactive; negative”; (Species/Cell Type: Chinese hamster lung (V79) cells, Assay Type: Forward gene mutation at the HPRT or ouabain locus, Assay Code: V79-, Evaluation Type: Evaluation A (Pre-1980)) “inactive; negative”; under setting [4], “no conclusion”; under setting [5], “inactive; negative”; (Species/Cell Type: Mouse prostate cells, Assay Type: Cell transformation, Assay Code: CTM-, Evaluation Type: Evaluation A (Pre-1980)) “inactive; negative”; (Species/Cell Type: Syrian hamster embryo (SHE) cells, Assay Type: Cell transformation, clonal assay, Assay Code: CTC+, Evaluation Type: Evaluation A (Pre-1980)) “active; positive”.

Take `CCOC(=O)C1C(C=C(C)C)C1(C)C` (stereo not drawn): the mutagenic call under setting [5] is “inactive; negative” and the mutagenic call (Species/Cell Type: Saccharomyces cerevisiae, Assay Type: Mitotic recombination or gene conversion, Assay Code: YEH+, Evaluation Type: Evaluation A (Pre-1980)) was “active; positive”.

In the case of `CNC(=O)Oc1ccccc1Cl`, the mutagenic call runs as follows: under setting [6], “no conclusion”; (Species/Cell Type: Bacillus subtilis (H17 vs M45T), Assay Type: Rec-assay, spot test, DNA effects (bacterial DNA repair), Assay Code: REX-, Evaluation Type: Evaluation A (Pre-1980)) “inactive; negative”; (Species/Cell Type: Escherichia coli WP2, Assay Type: Tryptophan reverse gene mutation, Assay Code: WP2-, Evaluation Type: Evaluation A (Pre-1980)) “inactive; negative”.

`CN(C)N=Nc1c(F)cc(F)cc1F`: the mutagenic call (Species/Cell Type: Drosophila melanogaster, Assay Type: Sex-linked recessive lethal gene mutation, Assay Code: SRL+, Evaluation Type: Evaluation A (Pre-1980)) is “active; positive”.

Turning to `[Cl-].[Cl-].[Cl-].[Cl-].[Cl-].[Cl-].[Mo]`, under “Species/Cell Type: Syrian hamster embryo (SA7/SHE) cells, Assay Type: Cell transformation, viral enhanced, Assay Code: CT7+, Evaluation Type: Evaluation A (Pre-1980)”, the mutagenic call was “active; positive”.

`CCCCN(CCCC(=O)O)N=O`: under “Species/Cell Type: Salmonella typhimurium (one or more of the five standard strains: TA98, TA100, TA1535, TA1537, and TA1538), Assay Type: Histidine reverse gene mutation, Ames assay, Assay Code: SAL+/-*, Activation: With metabolic activation, Evaluation Type: Evaluation A (Pre-1980)”, the mutagenic call was “inactive; positive without activation, negative with activation”.

In the case of `NNc1ccccc1`, the mutagenic call (Species/Cell Type: Mammalian polychromatic erythrocytes, Assay Type: Micronucleus test, chromosome aberrations, Assay Code: MNT+, Evaluation Type: Evaluation B (Post-1980)) was “active; positive”.

Turning to `O[C@@H]1C=Cc2ccc3cc4ccccc4cc3c2[C@H]1O`, the mutagenic call is “inactive; negative” under setting [3], “active; positive” under setting [7] and “no conclusion” under setting [8].

In the case of `Cc1ccccc1N=Nc1c(N)ccc2ccccc12`, for the setting “Species/Cell Type: Bacillus subtilis (H17 vs M45T), Assay Type: Rec-assay, spot test, DNA effects (bacterial DNA repair), Assay Code: REXT, Evaluation Type: Evaluation A (Pre-1980)”, the mutagenic call was “no conclusion”.

As to `CN=c1ccc2cc3ccc(NC)cc3oc-2c1`, under setting [4], the mutagenic call is “no conclusion”.

Turning to `CC(=O)Nc1ccc([C@@H]2O[C@H]2c2ccccc2)cc1`, the mutagenic call under setting [8] is “no conclusion”.

As for `COc1cc(C(=O)CCN2CCCCC2)ccc1O`, the mutagenic call (Species/Cell Type: Salmonella typhimurium, Assay Type: Forward and reverse gene mutation, host-mediated assay, Assay Code: HMA-, Evaluation Type: Evaluation A (Pre-1980)) was “inactive; negative”.

In the case of `CNC(=O)C(C)SCCSP(=O)(OC)OC` (stereo not drawn), the mutagenic call is “active; positive” (Species/Cell Type: Bacillus subtilis (H17 vs M45), Assay Type: Rec-assay, spot test, DNA effects (bacterial DNA repair), Assay Code: REW+, Evaluation Type: Evaluation A (Pre-1980)); “active; positive” under setting [9]; “active; positive” (Species/Cell Type: Escherichia coli WP2 UVRA, Assay Type: Tryptophan reverse gene mutation, Assay Code: WPU+, Evaluation Type: Evaluation A (Pre-1980)); “active; positive” under setting [7]; “active; positive” under setting [10].

Take `C=CCOc1nc2c(c(=O)n(C)c(=O)n2C)n1C`: the mutagenic call (Species/Cell Type: Allium cepa, Assay Type: Chromosome aberrations, Assay Code: ALC+D, Dose Response: With dose response, Evaluation Type: Evaluation A (Pre-1980)) is “active; positive”.

For the compound `[Cl][Cu][Cl]`, under setting [11], the mutagenic call is “inactive; negative”.

As for `Cc1c(N)cccc1N`, for the setting “Species/Cell Type: Nonhuman, Assay Code: CCG-, Evaluation Type: Evaluation A (Pre-1980)”, the call is “inactive; negative”.

`CCOP(=S)(OCC)SCCSCC`: the mutagenic call is “no conclusion” under setting [6]; “inactive; negative” (Species/Cell Type: Drosophila melanogaster, Assay Type: Sex-linked recessive lethal gene mutation, Assay Code: SRL-, Evaluation Type: Evaluation A (Pre-1980)); “no conclusion” (Species/Cell Type: Escherichia coli polA (W3119 vs P3478), Assay Type: Rec-assay, DNA effects (bacterial DNA repair), Assay Code: RE1T, Evaluation Type: Evaluation A (Pre-1980)); “active; positive” (Species/Cell Type: Hordeum vulgare (barley), Assay Type: Chromosome aberrations, Assay Code: HOC+D, Dose Response: With dose response, Evaluation Type: Evaluation A (Pre-1980)); “inactive; positive without activation, negative with activation” (Species/Cell Type: Human diploid fibroblasts, Assay Type: Unscheduled DNA synthesis (UDS) in vitro, DNA effects, Assay Code: UDH+/-*, Activation: With metabolic activation, Evaluation Type: Evaluation A (Pre-1980)); “no conclusion” under setting [1]. The mutagenic call was “inactive; negative” (Species/Cell Type: Saccharomyces cerevisiae, Assay Type: Mitotic recombination or gene conversion, Assay Code: YEH-, Evaluation Type: Evaluation A (Pre-1980)) and “inactive; negative” under setting [12].

Take `Cc1c2c(cc3c1ccc1ccccc13)C=CC(O)C2O` (stereo not drawn): the mutagenic call under setting [2] was “active; positive”.

In the case of `O=[Se](=O)(O)O`, the mutagenic call is “inactive; negative” under setting [11]; “active; positive” (Species/Cell Type: Human diploid fibroblasts, Assay Type: Unscheduled DNA synthesis (UDS) in vitro, DNA effects, Assay Code: UDH+, Evaluation Type: Evaluation A (Pre-1980)); “no conclusion” (Species/Cell Type: Human lymphocytes, Assay Type: Sister-chromatid exchange (SCE) in vitro, Assay Code: SCLT, Evaluation Type: Evaluation B (Post-1980)); “no conclusion” (Species/Cell Type: Human, Assay Type: Sister-chromatid exchange (SCE) in vitro, Assay Code: SC1T, Evaluation Type: Evaluation B (Post-1980)); “active; positive” (Species/Cell Type: Nonhuman, Assay Type: Sister-chromatid exchange (SCE) in vitro, Assay Code: SC2+*, Activation: With metabolic activation, Evaluation Type: Evaluation B (Post-1980)); “active; positive” under setting [10].

As for `Oc1ccc(N=Nc2ccccc2)cc1`, under setting [12], the mutagenic call was “inactive; negative”.

For `Cc1c2ccccc2c(C)c2c3c(ccc12)[C@H](O)[C@@H](O)C=C3`, the mutagenic call reads like this: (Species/Cell Type: Chinese hamster lung (V79) cells, Assay Type: Forward gene mutation at the HPRT or ouabain locus, Assay Code: V79+, Evaluation Type: Evaluation A (Pre-1980)) “active; positive”; (Species/Cell Type: Mouse prostate cells, Assay Type: Cell transformation, Assay Code: CTM+, Evaluation Type: Evaluation A (Pre-1980)) “active; positive”. The call (Species/Cell Type: Nonhuman, Assay Code: CCG+L, Evaluation Type: Evaluation A (Pre-1980)) was “active; positive”.

On to `Nc1ncc(/C=C/c2ccc([N+](=O)[O-])o2)nn1`, for which the mutagenic call is “inactive; negative” under setting [11]; “active; positive” under setting [9]; “active; positive” (Species/Cell Type: Escherichia coli WP2 UVRA, Assay Type: Tryptophan reverse gene mutation, Assay Code: WPU+D, Dose Response: With dose response, Evaluation Type: Evaluation A (Pre-1980)).

As for `CC1(C)S[C@@H]2[C@H](NC(=O)[C@H](N)c3ccccc3)C(=O)N2[C@H]1C(=O)O`, under “Species/Cell Type: Escherichia coli polA (W3119 vs P3478), Assay Type: Rec-assay, DNA effects (bacterial DNA repair), Assay Code: RE1-, Evaluation Type: Evaluation A (Pre-1980)”, the mutagenic call was “inactive; negative”.

For `Nc1ccc2ccccc2c1N=Nc1ccccc1`, the mutagenic call under setting [8] is recorded as “no conclusion”.
